Several values for one entry are separate records, joined by “and”; a condition that tells them apart may be missing. Equal values may be shown once.
Tests used:
[1] = Intraperitoneal glucose tolerance test; type: in vivo; parameters: unit not given here; conditions: IP injected, individual mice, not corrected
Text: To test for absorption and biologic incretin activity in vivo, we gastrically gavaged equal doses (10 nmol/kg) of the C6:0-GM1-GLP-1 fusion, the unfused GLP-1 peptide (GLP-1 oral), or vehicle into wild-type mice and measured effects on glucose metabolism by glucose tolerance test (Figure 5C). […] The effect on glucose tolerance by gastrically administered C6:0-GM1-GLP-1 was similar to the effect achieved by the intraperitoneal injection of GLP-1 peptide alone, implicating an equally high level of bioavailability for the gastrically-delivered GM1-fusion molecule (Figure 5D).
For intraperitoneal glucose tolerance tests, a 10 nmol/kg dose was used to gavage overnight-fasted WT C57/BL/6 mice (male 7–9 weeks old) with GM1-GLP-1 fusion molecules or unfused GLP-1. Glucose measurements following i.p administration of 2 mg/g glucose solution were obtained from tail vein blood applied directly to glucose strips as in ([te Welscher et al., 2014]).

[2] = GLP-1 in blood by streptavidin capture and luciferase bioassay; type: in vivo; conditions: individual mice, Ex 3 excluded from Figure 5E
Text: We confirmed intestinal absorption of the C6:0-GM1-GLP-1 into the systemic circulation in two ways. First, we measured GLP-1 activity in blood samples by streptavidin capture and quantitative luciferase bioassay (Figure 5E). […] In a second approach, we synthesized an all D-amino acid (non-degradable) isomer of GLP-1 coupled to AF488 to allow for direct quantitative measurement of the […] isomer in the blood using the same streptavidin capture assay as described for our reporter peptide (Figure 5A). Again, we find evidence for absorption of the GLP-1 cargo when fused to the C6:0-GM1 transport vehicle, but no absorption for the unfused GLP-1 peptide (Figure 5F). These experiments were performed in two different laboratories, using two different animal facilities with the same results. In all assays (Figure 5C–5F), we find the efficiency of intestinal absorption enabled by fusion to C6:0-GM1 was again almost as efficient as for IP injection of the peptide alone, implicating a high level of bioavailability for the GM1-fusion molecules applied by gastric gavage.

[3] = oral, 15 min after gastric gavage

GLP-1
total area under glucose tolerance curves (AUC) [1]: 2184 and 5775 and 3223 and 5783 and 10013 and 10613 and 14078 and 12630 and 14685 and 4613 and 1628 and 6533 and 2735 and 13695 and 6728 and 15120 and 10928 and 9270 and 7061 and 9383 and 7166 and 10043 and 10253
GLP-1 in blood, corrected for vehicle ([2]; IP-injected): 6.787 fmols per 100uls blood and 7.191 fmols per 100uls blood and 4.472 fmols per 100uls blood and 6.8463 fmols per 100uls blood and 3.406 fmols per 100uls blood and 4.493 fmols per 100uls blood and 6.695 fmols per 100uls blood and 7.88 fmols per 100uls blood and 13.0711 fmols per 100uls blood and 7.126 fmols per 100uls blood
GLP-1 in blood, raw data not corrected for vehicle ([2]; IP-injected): 8.132 fmols in 100 uls blood and 10.5063 fmols in 100 uls blood and 7.066 fmols in 100 uls blood and 8.153 fmols in 100 uls blood and 6.729 fmols in 100 uls blood and 7.914 fmols in 100 uls blood and 21.2711 fmols in 100 uls blood and 15.3265 fmols in 100 uls blood and 7.237 fmols in 100 uls blood and 7.641 fmols in 100 uls blood
GLP-1 in blood, corrected for vehicle [2, 3]: 0.3766 fmols per 100uls blood and 0.3584 fmols per 100uls blood and 0.3383 fmols per 100uls blood and 0.4572 fmols per 100uls blood and -1.003 fmols per 100uls blood and -1.627 fmols per 100uls blood and 2.205 fmols per 100uls blood and 0.253 fmols per 100uls blood and 1.235 fmols per 100uls blood and 0.303 fmols per 100uls blood and -0.01924 fmols per 100uls blood and 0.2681 fmols per 100uls blood and -0.002238 fmols per 100uls blood and -1.223 fmols per 100uls blood and 0.4322 fmols per 100uls blood and -3.718 fmols per 100uls blood
GLP-1 in blood, raw data not corrected for vehicle [2, 3]: 2.657 fmols in 100 uls blood and 2.033 fmols in 100 uls blood and 5.865 fmols in 100 uls blood and 3.913 fmols in 100 uls blood and 4.895 fmols in 100 uls blood and 3.963 fmols in 100 uls blood and 0.01476 fmols in 100 uls blood and 0.3021 fmols in 100 uls blood and 0.03176 fmols in 100 uls blood and 6.977 fmols in 100 uls blood and 8.632 fmols in 100 uls blood and 4.482 fmols in 100 uls blood and 0.8266 fmols in 100 uls blood and 0.8084 fmols in 100 uls blood and 0.7883 fmols in 100 uls blood and 0.9072 fmols in 100 uls blood
